“And” between values parts separate entries of the source, which are not always exact repeats. Identical values can stand only once.

For one compound, EC50 results are on record in patent publication US20130143902A1, “COMPOSITIONS AND METHODS OF TREATING A PROLIFERATIVE DISEASE WITH A QUINAZOLINONE DERIVATIVE” (GILEAD CALISTOGA LLC, priority 2011, published 2013).

One assay addresses T1, PI3K p110β (Mus musculus, UniProt Q8BTI9).
T1 construct: endogenous in cells; host or cells: murine embryo fibroblasts (MEFs)
Put plainly: Cellular p110β signaling: LPA-stimulated MEFs, pAkt Western blot. The class given is cell-based, murine. The conditions noted are these: EC50 p110β, cellular assay.

In the next assay the test system is pAkt in solid tumor. The experiment in a line: pAkt activity, solid tumor. Type of assay: cell-based. The following applies: N = 14. The text has this:
(§1) Cellular viability and pAkt activity were used to determine effects of Compounds A, C, and D in solid tumor, B-cell malignancies, and T-cell malignancies.

The subject of the next assay is LN229. Put plainly: pAkt pathway inhibition, LN229. The class given is cell-based. The following applies: Homo sapiens, LN-229; LN229, Glioma.
Another assay has as its system VCaP. The experiment in a line: pAkt pathway inhibition, VCaP. Type of assay: cell-based. The conditions noted are these: Homo sapiens, Prostate.
The test system of the next assay is OVCAR-3. The experiment in a line: pAkt pathway inhibition, OVCAR-3. The class given is cell-based. The following applies: Homo sapiens; OVCAR-3, Ovarian.
A further assay relates to Solid tumor. The experiment in a line: Cellular viability, solid tumor. Type of assay: cell-based. The conditions noted are these: N = 14. The protocol:
For primary T-ALL samples, cell viability was determined using the BD Cell Viability kit (BD Biosciences) and fluorescent counting beads as previously described in Armstrong, F. et al., NOTCH is a key regulator of human T-cell acute leukemia initiating cell activity, Blood 113, 1730-1740 (2009). Cells were plated with MS5-DL1 stroma cells. After 72 hours following treatment, cells were harvested and stained with an APC-conjugated anti-human CD45 according to the manufacturer's instructions. For solid tumor cell lines, cellular viability was determined using the AlamarBlue kit (Invitrogen). About 10,000 cells in 100 μL of media containing 10% FBS were aliquoted into individual wells of a 96-well plate and treated with vehicle (DMSO) or compound in triplicate for 24 hours. Ten μL of AlamarBlue reagent was added to each well and incubated for 4 hours at 37° C. with 5% CO2. Fluorescence was measured with an excitation wavelength at 530 to 560 nm and emission wavelength at 590 nm using Spectramax M5 plate reader (Molecular Devices, Sunnyvale, Calif.).
as §1

Another assay concerns the target PI3K p110α (Mus musculus, UniProt P42337). The experiment in a line: Cellular p110α signaling: PDGF-stimulated MEFs, pAkt Western blot. The class given is cell-based, murine.
Another assay relates to U138MG. The experiment in a line: pAkt pathway inhibition, U138MG. The class given is cell-based. The following applies: Homo sapiens, U138-MG, Glioma.

T1 sequence (Q8BTI9 whole entry): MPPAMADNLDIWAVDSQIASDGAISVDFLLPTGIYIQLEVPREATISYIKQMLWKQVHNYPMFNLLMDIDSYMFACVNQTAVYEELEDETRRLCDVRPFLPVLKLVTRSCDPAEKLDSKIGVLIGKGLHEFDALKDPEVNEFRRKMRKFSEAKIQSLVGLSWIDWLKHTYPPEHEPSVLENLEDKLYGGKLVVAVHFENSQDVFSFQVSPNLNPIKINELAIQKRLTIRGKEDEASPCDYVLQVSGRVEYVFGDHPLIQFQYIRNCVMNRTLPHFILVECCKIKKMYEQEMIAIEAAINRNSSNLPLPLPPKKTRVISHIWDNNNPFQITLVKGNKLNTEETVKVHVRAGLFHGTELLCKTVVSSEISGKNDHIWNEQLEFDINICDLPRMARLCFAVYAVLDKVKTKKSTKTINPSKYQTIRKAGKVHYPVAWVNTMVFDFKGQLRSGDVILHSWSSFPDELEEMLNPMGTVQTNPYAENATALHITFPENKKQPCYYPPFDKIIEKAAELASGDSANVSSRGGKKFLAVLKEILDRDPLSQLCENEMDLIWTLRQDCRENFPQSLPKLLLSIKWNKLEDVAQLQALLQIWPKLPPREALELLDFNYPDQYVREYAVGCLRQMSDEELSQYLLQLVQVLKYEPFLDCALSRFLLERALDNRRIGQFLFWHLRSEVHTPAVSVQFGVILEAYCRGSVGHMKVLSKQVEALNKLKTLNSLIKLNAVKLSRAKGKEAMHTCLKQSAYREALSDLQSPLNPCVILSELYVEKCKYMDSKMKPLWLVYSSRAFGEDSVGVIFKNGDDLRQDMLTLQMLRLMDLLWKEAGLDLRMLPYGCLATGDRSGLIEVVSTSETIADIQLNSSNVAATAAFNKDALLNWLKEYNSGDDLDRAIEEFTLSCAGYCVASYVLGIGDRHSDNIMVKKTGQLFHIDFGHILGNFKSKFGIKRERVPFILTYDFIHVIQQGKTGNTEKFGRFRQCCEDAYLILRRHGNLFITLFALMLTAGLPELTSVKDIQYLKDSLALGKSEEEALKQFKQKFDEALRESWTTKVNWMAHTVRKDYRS
T1 sequence (P26450 whole entry partner): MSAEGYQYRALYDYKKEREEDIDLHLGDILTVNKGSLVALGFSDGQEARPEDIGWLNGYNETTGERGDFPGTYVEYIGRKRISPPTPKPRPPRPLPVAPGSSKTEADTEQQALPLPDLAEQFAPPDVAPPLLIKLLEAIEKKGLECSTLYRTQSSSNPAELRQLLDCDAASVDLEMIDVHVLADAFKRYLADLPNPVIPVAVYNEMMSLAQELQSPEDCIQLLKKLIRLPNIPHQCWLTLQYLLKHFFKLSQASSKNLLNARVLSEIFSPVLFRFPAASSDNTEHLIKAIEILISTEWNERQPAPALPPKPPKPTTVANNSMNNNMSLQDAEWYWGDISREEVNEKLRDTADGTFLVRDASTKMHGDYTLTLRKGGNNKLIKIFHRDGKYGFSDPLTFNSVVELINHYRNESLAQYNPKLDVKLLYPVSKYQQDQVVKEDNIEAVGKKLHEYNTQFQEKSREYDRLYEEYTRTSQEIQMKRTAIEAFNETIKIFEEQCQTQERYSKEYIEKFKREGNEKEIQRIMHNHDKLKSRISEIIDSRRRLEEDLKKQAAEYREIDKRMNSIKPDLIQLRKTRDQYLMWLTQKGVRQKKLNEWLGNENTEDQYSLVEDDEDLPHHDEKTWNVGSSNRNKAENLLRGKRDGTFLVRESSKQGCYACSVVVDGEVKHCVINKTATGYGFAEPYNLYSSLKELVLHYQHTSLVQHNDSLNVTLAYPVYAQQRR
Sequence of PI3K p110α (P42337 whole entry): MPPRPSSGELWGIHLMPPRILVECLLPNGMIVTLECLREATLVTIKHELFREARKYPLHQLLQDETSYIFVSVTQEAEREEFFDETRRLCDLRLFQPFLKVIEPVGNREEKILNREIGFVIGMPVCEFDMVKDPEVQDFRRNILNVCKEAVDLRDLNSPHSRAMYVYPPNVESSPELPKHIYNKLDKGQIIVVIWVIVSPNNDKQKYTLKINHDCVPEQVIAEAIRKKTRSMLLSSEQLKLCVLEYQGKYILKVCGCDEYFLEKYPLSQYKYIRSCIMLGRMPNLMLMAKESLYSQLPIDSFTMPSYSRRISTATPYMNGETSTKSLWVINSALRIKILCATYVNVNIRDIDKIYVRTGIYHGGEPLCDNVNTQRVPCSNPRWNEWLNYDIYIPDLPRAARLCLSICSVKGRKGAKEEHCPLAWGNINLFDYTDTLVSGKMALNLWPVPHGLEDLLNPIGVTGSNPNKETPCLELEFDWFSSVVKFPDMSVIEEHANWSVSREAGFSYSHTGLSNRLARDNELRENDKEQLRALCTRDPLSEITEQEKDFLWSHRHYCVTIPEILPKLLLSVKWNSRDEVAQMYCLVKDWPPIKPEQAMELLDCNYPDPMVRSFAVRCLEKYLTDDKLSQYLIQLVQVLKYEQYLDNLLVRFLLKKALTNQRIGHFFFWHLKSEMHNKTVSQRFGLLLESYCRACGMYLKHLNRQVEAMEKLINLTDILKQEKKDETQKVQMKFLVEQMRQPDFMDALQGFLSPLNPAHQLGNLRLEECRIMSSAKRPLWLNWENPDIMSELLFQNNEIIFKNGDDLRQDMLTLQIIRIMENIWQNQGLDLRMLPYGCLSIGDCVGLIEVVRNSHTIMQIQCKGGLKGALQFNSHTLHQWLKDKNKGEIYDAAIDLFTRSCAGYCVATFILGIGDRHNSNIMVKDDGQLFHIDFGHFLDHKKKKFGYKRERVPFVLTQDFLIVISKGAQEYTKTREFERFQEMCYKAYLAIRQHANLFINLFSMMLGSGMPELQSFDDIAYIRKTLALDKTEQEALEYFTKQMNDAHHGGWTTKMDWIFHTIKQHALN
Sequence of PI3K p110α (P26450 whole entry partner): as the sequence (P26450 whole entry partner) above
Procedure for PI3K p110α: (§2) To analyze PI3K p110α and p110β signaling, murine embryo fibroblast (MEFs) were removed from FBS and starved for 2 hours followed by stimulation with 10 ng/mL of PDGF (Cell Signaling Technologies, Danvers, Mass.) or 10 μM of LPA (Echelon, Salt Lake City, Utah) for 10 minutes at 37° C., respectively. After washing once in cold phosphate-buffered saline (PBS), the cell pellet was resuspended in 1× cell lysis buffer (Cell Signaling Technologies) supplemented with mini protease inhibitor mix (Roche, Indianapolis, Ind.), phosphate inhibitor cocktail set I and II (Calbiochem, San Diego, Calif.) for 15 minutes on ice. Whole-cell lysates were obtained by centrifugation at 16,000 g for 10 minutes at 4° C., and the soluble protein was analyzed by Western blotting for Akt and pAkt levels. To analyze PI3K p110δ and p110γ signaling, basophil activation was measured in isolated PBMC or whole blood using the Flow2 CAST kit according to the manufacture's standardized methods (Buhlman Laboratories AG, Switzerland). Briefly, p110δ was activated with anti-FCεRI and p110γ was activated with fMLP (2 μM) in the absence or presence of compounds. To monitor the basophil cell population and cellular activation, anti-CD63-FITC and anti-CCR3-PE antibodies were added to each sample. Cells were fixed and analyzed on a FC500 MPL flow cytometer (Beckman Coulter, Brea, Calif.).
Procedure for PI3K p110β: as §2

Regarding `CC(Nc1ncnc2[nH]cnc12)c1nc2cccc(Cl)c2c(=O)n1-c1ccccc1` (centres unmarked) [Compound A, 2-(1-(9H-purin-6-ylamino)ethyl)-5-chloro-3-phenylquinazolin-4(3H)-one], the EC50 (as a rule, the concentration at which the effect is half-maximal) at PI3K p110β is ~0.27 µM and 0.27 µM; with pAkt in solid tumor, 0.188 µM; in the assay on LN229, 10 nM; in the assay on VCaP, 1200 nM; in the assay with OVCAR-3, 647 nM; with Solid tumor it was 1.7 µM. Also, the values for the 50% effective concentration (EC50) at PI3K p110α and in the assay with U138MG were 6 µM and 2290 nM, respectively.
